Test results from patent US20050069541A1, “Composition for and treatment of demyelinating diseases and paralysis by administration of remyelinating agents” (priority 2003, published 2005).
Entries after “also recorded” stand apart in the source; their conditions may differ.

How the values were obtained:
IL-2, IL-10, MCP-1 RNA = experiment: Chronic EAE: quantitative RT-PCR of spinal cord; type: in vivo, guinea pig
Protocol: Quantitative Reverse Transcription-PCR: IL-2, IL-10, MCP-1. RNA was isolated from 30 mg of frozen guinea pig spinal cord using the S.N.A.P.™ (simple nucleic acid preparation) total RNA Isolation Kit (Invitrogen) according to manufacturer's instructions, modified to include a second DNAse treatment step followed by an additional purification over the S.N.A.P. column.
Primer/probe sequences and concentrations for IL-2, IL-10, and MCP-1 are given in Table 7, as well as the standard RNA used for each gene. RT-PCR was carried out in triplicate using the ABI PRISM® 7700 Sequence Detection System. 50 μl reactions contained 10 to 800 ng of total RNA and primers and probes at the concentrations indicated above in reaction buffer consisting of 6.67% glycerol (Amresco); 5.5 mM MgCl; 300 μM DATP, dCTP, dGTP, and dUTP; 100 nM probe; 1.25 unit of AmpliTaq Gold® DNA Polymerase (Applied Biosystems); 1× TaqMan® Buffer A (TaqMan® PCR Core reagents kit, Applied Biosystems), 20 units of RNase Inhibitor (Roche); 1.25 unit of murine leukemia virus (MuLV) Reverse Transcriptase (Applied Biosystems). Reverse-transcription of RNA was carried out at 48° C. for 30 min., followed by a 10 min. denaturing step at 95° C. PCR was carried out by 40 thermo-cycles consisting of 95° C. for 15 seconds followed by 60° C. for 1 minute. Each plate included a standard curve using the standard RNA listed in Table 7 and two additional control samples: 1) a positive control RNA sample used on all plates, 2) a non-template control (NTC).
The correlation coefficients of the standard curves were greater than 0.990 for all data shown. The coefficients of variation for sample triplicates were less than 0.2. Since the RNA used for the standard curve is a heterogeneous mix of RNA containing a constant but unknown amount of the target message, the numbers calculated are relative.

α4 integrin = α4 integrin (Homo sapiens, UniProt P05556+P13612); experiment: Inhibition of cell adhesion to VCAM; type: cell-based, human and guinea pig; details: human and guinea pig integrin; read-out: IC50 for inhibition of cell adhesion to VCAM
α4 integrin, sequence (P13612 34-1032): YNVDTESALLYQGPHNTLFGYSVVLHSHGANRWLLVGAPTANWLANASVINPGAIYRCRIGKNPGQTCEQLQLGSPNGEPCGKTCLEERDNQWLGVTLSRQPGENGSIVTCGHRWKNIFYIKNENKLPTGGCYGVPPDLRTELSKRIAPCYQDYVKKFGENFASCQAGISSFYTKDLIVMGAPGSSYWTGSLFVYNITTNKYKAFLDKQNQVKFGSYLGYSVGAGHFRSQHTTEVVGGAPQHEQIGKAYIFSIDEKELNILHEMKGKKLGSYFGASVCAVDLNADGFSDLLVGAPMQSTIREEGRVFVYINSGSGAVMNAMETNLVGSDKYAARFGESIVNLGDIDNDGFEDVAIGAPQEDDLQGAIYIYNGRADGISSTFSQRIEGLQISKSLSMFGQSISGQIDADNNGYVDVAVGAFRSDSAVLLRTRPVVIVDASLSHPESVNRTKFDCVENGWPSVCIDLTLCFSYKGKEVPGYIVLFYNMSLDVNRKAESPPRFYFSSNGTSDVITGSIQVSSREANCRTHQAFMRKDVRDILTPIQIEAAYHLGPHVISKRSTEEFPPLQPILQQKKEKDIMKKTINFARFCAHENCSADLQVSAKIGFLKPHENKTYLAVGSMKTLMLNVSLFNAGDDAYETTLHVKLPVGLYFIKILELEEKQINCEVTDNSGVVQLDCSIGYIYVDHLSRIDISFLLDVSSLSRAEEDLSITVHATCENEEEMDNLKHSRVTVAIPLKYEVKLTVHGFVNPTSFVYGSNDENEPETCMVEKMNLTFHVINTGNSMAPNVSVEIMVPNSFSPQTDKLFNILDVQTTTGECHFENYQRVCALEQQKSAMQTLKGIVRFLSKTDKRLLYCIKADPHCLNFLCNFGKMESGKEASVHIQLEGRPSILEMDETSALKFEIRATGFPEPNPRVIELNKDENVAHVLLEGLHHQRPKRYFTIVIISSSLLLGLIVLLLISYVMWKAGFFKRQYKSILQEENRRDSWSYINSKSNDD
α4 integrin, sequence (P05556 21-798): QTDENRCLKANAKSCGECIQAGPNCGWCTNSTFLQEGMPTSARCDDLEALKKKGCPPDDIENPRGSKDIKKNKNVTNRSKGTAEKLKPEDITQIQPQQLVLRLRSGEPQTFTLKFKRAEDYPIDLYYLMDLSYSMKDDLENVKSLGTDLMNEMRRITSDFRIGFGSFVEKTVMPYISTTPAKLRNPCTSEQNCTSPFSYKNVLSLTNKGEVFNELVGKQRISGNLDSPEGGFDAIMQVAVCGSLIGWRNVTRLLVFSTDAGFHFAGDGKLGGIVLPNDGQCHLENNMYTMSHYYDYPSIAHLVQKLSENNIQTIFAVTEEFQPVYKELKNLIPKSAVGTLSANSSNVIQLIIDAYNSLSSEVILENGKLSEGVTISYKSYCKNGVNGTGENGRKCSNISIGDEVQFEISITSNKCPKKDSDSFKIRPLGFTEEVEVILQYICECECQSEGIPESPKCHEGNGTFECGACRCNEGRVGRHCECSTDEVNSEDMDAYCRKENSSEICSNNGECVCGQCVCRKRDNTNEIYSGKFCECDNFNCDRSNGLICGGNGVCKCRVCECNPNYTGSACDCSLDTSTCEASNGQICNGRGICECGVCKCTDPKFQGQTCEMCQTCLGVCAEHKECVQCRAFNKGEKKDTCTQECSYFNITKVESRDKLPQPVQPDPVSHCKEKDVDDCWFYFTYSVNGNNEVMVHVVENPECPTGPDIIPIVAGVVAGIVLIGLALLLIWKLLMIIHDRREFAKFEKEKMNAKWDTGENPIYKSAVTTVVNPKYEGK

[1] = system: infiltrating cells in spinal cord; experiment: Chronic EAE: mean cell counts in spinal cord (H-E sections, 0.12 mm^2 fields); type: in vivo, guinea pig; details: for Mean # Cells/0.12 mm^2: spinal cord
Protocol: To quantify the abnormalities observed in the spinal cord, sections stained with H-E were divided into 12 representative pie-shaped areas. In each area, the number of cells within a 0.12 mm^2 field of view was counted using Sigma Scan Pro image analysis software (SPSS Inc.), and the combined mean number of cells in all 12 areas was calculated for the whole spinal cord (36 fields of view per animal). Note that as all cell nuclei were counted, the number of cells may include neurons and glial cells in addition to infiltrates.

[2] = system: EAE in female Hartley guinea pigs
[3] = system: α4 integrin on circulating lymphocytes and monocytes; experiment: Chronic EAE: FACS analysis of α4 integrin on circulating cells, day 80; type: in vivo, guinea pig
Protocol: FACS Analysis. On day 80 post-immunization, heparinized blood samples were collected from non-EAE animals, saline-treated animals, N-[N-(3-pyridinesulfonyl)-L-3,3-dimethyl-4-thiaprolyl]-O-[1-methylpiperazin-4-ylcarbonyl]-L-tyrosine isopropyl ester-treated animals and animals 10 days following withdrawal of N-[N-(3-pyridinesulfonyl)-L-3,3-dimethyl-4-thiaprolyl]-O-[1-methylpiperazin-4-ylcarbonyl]-L-tyrosine isopropyl ester. All samples were maintained at 4° C. for all procedures. 150 μl samples were exposed to primary antibody for 30 minutes, washed twice, and then incubated with PE-conjugated goat anti-mouse IgG Fc in the presence of 5% guinea pig serum (Beckman Coulter #PN EM055 1). Red blood cells were lysed with Becton-Dickinson lysing solution and the samples were examined on a FACScan flow cytometer (Becton Dickinson, Mountain View, Calif.) gating on different cell populations by light scatter.

CC(C)OC(=O)[C@H](Cc1ccc(OC(=O)N2CCN(C)CC2)cc1)NC(=O)[C@H]1N(S(=O)(=O)c2cccnc2)CSC1(C)C [N-[N-(3-pyridinesulfonyl)-L-3,3-dimethyl-4-thiaprolyl]-O-[1-methylpiperazin-4-ylcarbonyl]-L-tyrosine isopropyl ester]
cytokine RNA after withdrawal of compound (IL-2, IL-10, MCP-1 RNA; 10 days after withdrawal): returned to levels comparable to saline-treated animals | IL-2 RNA in spinal cord during treatment (IL-2, IL-10, MCP-1 RNA; lumbar spinal cord): almost no detectable IL-2 RNA | inflammatory cytokine RNA (IL-2, IL-10, MCP-1) during treatment (IL-2, IL-10, MCP-1 RNA; lumbar spinal cord, versus saline): significant reduction; also recorded: marked decrease | IC50 (α4 integrin): 1 nM | cell number in spinal cord versus saline-treated animals ([1]; after 10, 20, 30 or 40 days, p<0.001 two-way ANOVA): significant reduction | mean cell counts versus chronic (d40) control EAE animals ([1]; after 20, 30 or 40 days, p<0.05): significantly lower | mean cell count in spinal cord versus non-EAE animals ([1]; after 40 days of treatment): not different | mean cell count after removal of compound for 10 days versus continuous treatment ([1]; p<0.05): significant increase | rate of cell loss from spinal cord ([1]; slope of linear regression of mean cell counts, r^2=0.90): 8 cells/mm^2/day | Mean # Cells/0.12 mm^2 ([1]; D50 (10 days of treatment)): 97 ± 3.9 cells/0.12 mm^2 | Mean # Cells/0.12 mm^2 ([1]; D60 (20 days of treatment)): 86 ± 4.2 cells/0.12 mm^2 | Mean # Cells/0.12 mm^2 ([1]; D70 (30 days of treatment)): 89 ± 8 cells/0.12 mm^2 | Mean # Cells/0.12 mm^2 ([1]; D80 (40 days of treatment)): 70 ± 4 cells/0.12 mm^2 | start of clinical reversal following the initial treatment ([2]; 30 mg/kg 2x/day s.c.): 2 to 3 days | mean clinical score over the treatment period versus saline ([2]; 30 mg/kg 2x/day s.c. from day 40 for 10-40 days, p<0.001 Mann Whitney): significantly lower | mean clinical score day 70-80 after withdrawal (30 days treatment, 10 days off) versus continuous treatment ([2]; n=5, p<0.05 Mann Whitney): significantly greater | clinical score reached during treatment in animals with an established clinical score of 2 ([2]; several animals, paresis reversed): 1 | escape from treatment ([2]; up to 40 days of treatment): None of the animals, however, escaped from treatment | percentage of α4 integrin bright lymphocytes in the circulation after removal of compound ([3]; 10 days after withdrawal): returned to saline-treated levels | increase of α4 integrin expression on circulating monocytes in EAE ([3]; day 80): not affected | α4 integrin bright lymphocytes in the circulation versus saline ([3]; day 80 post immunization): large increase
